The record followed here is patent US12310944B2 (priority 2019, dated 2025).

In data set [1] the test system is PC-12 neural cell line. The data set is described as follows: Toxicity test in PC-12 nerve cell (MTT). Type of data set: cell-based. To be noted: PC-12 cells; for SR(%) cell survival rate, 20 μM: 20 μM compound for 24 h; for SR(%) cell survival rate, 50 μM: 50 μM compound for 24 h. As for the experimental part:
Toxicity Test in PC-12 Nerve Cell:
Drugs and reagents: Test compounds, DMEM medium (01-050-1A) purchased from Biological Industries, FBS fetal bovine serum (04-001-1A) purchased from Biological Industries, MTT thiazolyl blue reagent (KGT525500) purchased from KeyGEN BioTECH.
(§1) Instrument: THERMO Varioskan Flash full-wavelength multifunctional microplate reader.
About 3×10^3 PC-12 cells were evenly mixed in 0.1 mL of DMEM medium containing 10% FBS, and plated on a 96-well bottom plate, and incubated overnight at 37° C. in an environment containing 5% CO2. The 20 μM and 50 μM compounds diluted in 0.1 mL of DMEM medium were treated on the cells for 24 hours. Then MTT reagent was added to the well plate, and the plate was incubated at 37° C. for 2 to 4 hours. The color reaction was measured at 492 nm using a spectrophotometer (Thermo, multiskan FC).

Data set [2] addresses hBuChE (Homo sapiens, UniProt P06276). Nature of the data set: Cholinesterase inhibitory activity (DTNB/BTC), hBuChE. Type of data set: biochemical. To be noted: mean ± SEM.
Data set [3] addresses T1, eqBuChE (BuChE, E.C.3.1.1.8, selected from horse serum) (Equus caballus, UniProt P81908).
T1 construct: BuChE (E.C.3.1.1.8, selected from horse serum); purchased Sigma; host or cells: horse serum
The data set is described as follows: Cholinesterase inhibitory activity (DTNB/BTC), eqBuChE. Type of data set: biochemical.
Text: Determination of Cholinesterase Inhibitory Activity:
Drugs and reagents: Test compounds, AChE (E.C.3.1.1.7, Type VI-S, selected from electric eel), BuChE (E.C.3.1.1.8, selected from horse serum), 5,5′-dithiobis(2-nitrobenzoic acid) (DTNB), acetylthiocholine (ATC) iodide and butyrylthiocholine (BTC) iodide were all purchased from Sigma; the positive control tacrine hydrochloride (9-amino-1,2,3,4-tetrahydroacridine hydrochloride hydrate) was purchased from BioTrend.
as §1
(1) Formulation of buffer: 13.6 g of potassium dihydrogen phosphate was dissolved in 1 L of water, and pH was adjusted with potassium hydroxide to reach pH=8±0.1. The solution was stored at 4° C. for later use.
(2) Formulation of 0.01 M DTNB solution: 0.396 g of DTNB and 0.15 g of sodium bicarbonate were dissolved in 100 mL of water to prepare a 0.01 M DTNB solution, which was stored at −30° C. for later use.
(3) Formulation of 0.075 M ATC and BTC solutions: 0.217 g of ATC was dissolved in 10 mL of water to prepare a 0.075 M ATC solution, which was stored at −30° C. for later use; 0.237 g of BTC was dissolved in 10 mL of water to prepare a 0.075 M BTC solution, which was stored at −30° C. for later use.
(4) Formulation of AChE and BuChE solutions: 5,000 units of AChE were dissolved in 1 mL of 1% gel solution, and then diluted to 100 mL with water to prepare a AChE solution with a concentration of 5 units/mL, which was stored at −30° C. for later use; 5,000 units of BuChE were dissolved in 1 mL of 1% gel solution, and then diluted to 100 mL with water to prepare a BuChE solution with a concentration of 5 units/mL, which was stored at −30° C. for later use.
(5) Formulation of test substance solution: The test compound was dissolved in ethanol to obtain a solution with a concentration of 10^−3 M (ethanol would not affect the test results), and then diluted with water to prepare solutions with concentrations of […], 10^−5, 10^−6, 10^−7, 10^−8, 10^−9, and 10^−10 M, respectively.
Before the start of the experiment, all the solutions as used were warmed to room temperature, and the AChE and BuChE solutions were diluted 1-fold with water to prepare an enzyme solution with a concentration of 2.5 units/mL. The background UV absorbance was measured with a blank buffer (3 mL) as a subtraction value. Firstly, 100 μL of test compound solution, 100 μL of DTNB solution, and 100 μL of enzyme solution were added to 3 mL of buffer. After adding 20 μL of ATC or BTC solution to trigger the reaction, the time was recorded immediately and the test solution was mixted quickly and uniformly at the same time. After 2 minutes, the UV absorbance was measured at a wavelength of […]. The blank control group was measured with an equal volume of water instead of the test substance solution. All tests were performed three times in parallel. The UV absorption value of the blank control group was taken as 100%, the absorbance (OD value) of the test compound at each concentration was recorded, and GraphPad Prism™ (GraphPad Software, San Diego, CA, USA) software was used to analyze the results in a non-linear regression analysis model to calculate the corresponding IC50 values, as shown in Table 1.

The mark [4] stands for this setting: read-out: IC50 (nM) ± SEM eqBuChE.
Setting [5] is: eqBuChE, mean ± SEM, three parallel tests.

The structures appear in SMILES notation. Like-named read-outs stand apart in the source and are kept apart here.

T1 sequence (P81908 whole entry): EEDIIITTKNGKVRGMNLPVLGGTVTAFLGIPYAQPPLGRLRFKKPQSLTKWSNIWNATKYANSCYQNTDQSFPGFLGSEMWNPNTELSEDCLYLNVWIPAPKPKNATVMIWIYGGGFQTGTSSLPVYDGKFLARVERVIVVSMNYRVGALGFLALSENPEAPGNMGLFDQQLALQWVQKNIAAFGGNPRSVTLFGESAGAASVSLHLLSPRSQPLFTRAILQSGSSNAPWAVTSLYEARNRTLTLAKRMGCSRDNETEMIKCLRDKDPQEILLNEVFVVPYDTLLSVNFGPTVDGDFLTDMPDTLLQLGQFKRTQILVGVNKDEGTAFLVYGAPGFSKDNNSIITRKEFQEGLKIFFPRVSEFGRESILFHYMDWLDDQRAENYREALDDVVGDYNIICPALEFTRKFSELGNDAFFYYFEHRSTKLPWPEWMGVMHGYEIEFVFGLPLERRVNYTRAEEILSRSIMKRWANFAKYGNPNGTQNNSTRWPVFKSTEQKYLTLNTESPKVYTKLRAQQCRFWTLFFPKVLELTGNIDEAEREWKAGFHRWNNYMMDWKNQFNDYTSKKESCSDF

For orientation: IC50 means the point on the concentration scale where inhibition reaches its midpoint. Regarding `CCN(CC)Cc1ccccc1CNC(=O)c1cccc(NC(=O)c2ccccc2F)c1` [Compound 18, N-(3-((2-((diethylamino)methyl)benzyl)carbamoyl)phenyl)-2-fluorobenzamide], in data set [1], the “SR(%) cell survival rate, 20 μM” value amounted to 80.26% and the “SR(%) cell survival rate, 50 μM” value came to 73.56%. This compound came in with an IC50 in data set [2] of 17.4 ± 1.98 nM. The IC50 in data set [3] (setting [4]) turned out to be 3.5 ± 1.1 nM.
For `CCN(CC)Cc1ccccc1CNC(=O)c1cccc(NC(=O)c2ccc(Cl)cc2)c1` [Compound 19, 3-(4-chlorobenzamido)-N-(2-((diethylamino)methyl)benzyl)benzamide] the same measures were 90.43%, 79.24%, 0.83 ± 0.39 nM and 0.34 ± 0.21 nM.
For `CCN(CC)Cc1ccccc1CNC(=O)c1cccc(NC(=O)c2ccc(Br)cc2)c1` [Compound 20, 3-(4-bromobenzamido)-N-(2-((diethylamino)methyl)benzyl)benzamide] the same measures were 94.00%, 85.21%, 1.91 ± 0.59 nM and 0.98 ± 0.62 nM.
Take `CCN(CC)Cc1ccccc1CNC(=O)c1cccc(NC(=O)c2ccc(I)cc2)c1` [Compound 21, 3-(4-iodobenzamido)-N-(2-((diethylamino)methyl)benzyl)benzamide]: in data set [1], the “SR(%) cell survival rate, 20 μM” value is 94.40% and the “SR(%) cell survival rate, 50 μM” value turned out to be 89.63%. The compound further showed a half-maximal inhibitory concentration (IC50) in data set [2] of 3.33 ± 1.62 nM. Further, the IC50 in data set [3] (setting [4]) was 1.59 ± 0.26 nM.
For `CCN(CC)Cc1ccccc1CNC(=O)c1cccc(NC(=O)c2ccc(C)cc2)c1` [Compound 22, N-(2-((diethylamino)methyl)benzyl)-3-(4-methylbenzamido)benzamide] the same measures were 93.35%, 89.42%, 1.54 ± 0.56 nM and 0.98 ± 0.21 nM.
Turning to `CCN(CC)Cc1ccccc1CNC(=O)c1cccc(NC(=O)c2ccc(C)c(C)c2)c1` [Compound 23, N-(3-((2-((diethylamino)methyl)benzyl)carbamoyl)phenyl)-3,4-dimethylbenzamide], in data set [1], the “SR(%) cell survival rate, 20 μM” value is reported as 85.05% and the “SR(%) cell survival rate, 50 μM” value came out at 80.72%. The same compound had an IC50 in data set [2] of 1.53 ± 0.55 nM. The half-maximal inhibitory concentration (IC50) in data set [3] (setting [4]) is 0.8 ± 0.24 nM.
For `CCN(CC)Cc1ccccc1CNC(=O)c1cccc(NC(=O)c2ccc(C(C)C)cc2)c1` [Compound 24] the same measures were 97.02%, 86.21%, 2.08 ± 0.73 nM and 0.58 ± 0.67 nM.
For `CCN(CC)Cc1ccccc1CNC(=O)c1cccc(NC(=O)c2ccc(C(F)(F)F)cc2)c1` [Compound 25] the same measures were 97.58%, 91.57%, 1.41 ± 0.01 nM and 0.38 ± 0.1 nM.
Consider `CCN(CC)Cc1ccccc1CNC(=O)c1cccc(NC(=O)c2ccc(OC)cc2)c1` [Compound 26], for which, in data set [1], the “SR(%) cell survival rate, 20 μM” value worked out at 97.20% and the “SR(%) cell survival rate, 50 μM” value is 82.25%. This compound also registered a 50% inhibitory concentration (IC50) in data set [2] of 1.04 ± 0.52 nM. Moreover, the IC50 in data set [3] (setting [5]) was found to be 0.55 ± 0.09 nM.
With `CCN(CC)Cc1ccccc1CNC(=O)c1cccc(NC(=O)c2cccc(OC)c2)c1` [Compound 27], the “SR(%) cell survival rate, 20 μM” value in data set [1] is on record as 91.23%. For the same compound, in data set [1], the “SR(%) cell survival rate, 50 μM” value came out at 83.60%. Further, the concentration for half-maximal inhibition (IC50) in data set [2] is 12.8 ± 6.01 nM; in data set [3] (setting [4]), 4.91 ± 1.35 nM.
For `CCN(CC)Cc1ccccc1CNC(=O)c1cccc(NC(=O)c2ccccc2OC)c1` [Compound 28] the same measures were 95.42%, 85.46%, 20 ± 2.06 nM and 5.28 ± 1.21 nM.
For `CCN(CC)Cc1ccccc1CNC(=O)c1cccc(NC(=O)c2ccc(C(=O)OC)cc2)c1` [Compound 29, methyl 4-((3-((2-((diethylamino)methyl)benzyl)carbamoyl)phenyl)carbamoyl)benzoate], in that order: 99.42%, 93.32%, 9.06 ± 0.74 nM and 2.48 ± 0.26 nM.
`CCN(CC)Cc1ccccc1CNC(=O)c1cccc(NC(=O)c2ccc(C(C)=O)cc2)c1` [Compound 30]: the “SR(%) cell survival rate, 20 μM” value in data set [1] was 91.86%. Moreover, the “SR(%) cell survival rate, 50 μM” value in data set [1] is on record as 72.56%. Further, the IC50 turned out to be 24 ± 1.52 nM in data set [2] and 6.63 ± 0.66 nM in data set [3] (setting [5]).
In the case of `CCN(CC)Cc1ccccc1CNC(=O)c1cccc(NC(=O)c2ccc(C#N)cc2)c1` [Compound 31, 3-(4-cyanobenzamido)-N-(2-((diethylamino)methyl)benzyl)benzamide], in data set [1], the “SR(%) cell survival rate, 20 μM” value worked out at 94.67% and the “SR(%) cell survival rate, 50 μM” value was found to be 91.59%. The IC50 in data set [2] was 16.5 ± 15.1 nM. Also, in data set [3] (setting [4]), the IC50 stood at 15.8 ± 2.84 nM.
For `CCN(CC)Cc1ccccc1CNC(=O)c1cccc(NC(=O)c2ccc([N+](=O)[O-])cc2)c1` [Compound 32] the same measures were 97.42%, 84.65%, 30.9 ± 3.26 nM and 22.6 ± 0.98 nM.
For `CCN(CC)Cc1ccccc1CNC(=O)c1cccc(NC(=O)c2ccc(N)cc2)c1` [Compound 33] the same measures were 90.21%, 74.62%, 7.99 ± 2.53 nM and 1.56 ± 0.67 nM.
Consider `CN(C)Cc1ccccc1CNC(=O)c1cccc(NC(=O)c2cccs2)c1` [Compound 34, N-(3-((2-((dimethylamino)methyl)benzyl)carbamoyl)phenyl)thiophene-2-carboxamide], for which, in data set [1], the “SR(%) cell survival rate, 20 μM” value was determined as 96.10% and the “SR(%) cell survival rate, 50 μM” value is listed as 94.5%. In addition, in data set [2], the IC50 amounted to 0.75 ± 0.27 nM. Further, in data set [3] (setting [5]), half-maximal inhibition (IC50) required 0.29 ± 0.05 nM.
`CCCN(CCC)Cc1ccccc1CNC(=O)c1cccc(NC(=O)c2cccs2)c1` [Compound 35, N-(3-((2-((dipropylamino)methyl)benzyl)carbamoyl)phenyl)thiophene-2-carboxamide]: in data set [1], the “SR(%) cell survival rate, 20 μM” value was found to be 92.58% and the “SR(%) cell survival rate, 50 μM” value was 84.86%. Moreover, the IC50 in data set [2] came to 0.89 ± 0.67 nM. Further, the IC50 in data set [3] (setting [5]) came to 0.45 ± 0.04 nM.
As to `CCN(CC)Cc1cccc(CNC(=O)c2cccc(NC(=O)c3cccs3)c2)c1` [Compound 37, N-(3-((3-((diethylamino)methyl)benzyl)carbamoyl)phenyl)thiophene-2-carboxamide], in data set [1], the “SR(%) cell survival rate, 20 μM” value came to 92.05% and the “SR(%) cell survival rate, 50 μM” value is listed as 82.03%. 32.9 ± 15.7 nM corresponded to half-maximal inhibition in data set [2] (IC50). In addition, the concentration for half-maximal inhibition (IC50) in data set [3] (setting [4]) came to 12.6 ± 0.86 nM.
For `CCN(CC)Cc1ccc(CNC(=O)c2cccc(NC(=O)c3cccs3)c2)cc1` [Compound 38, N-(3-((4-((diethylamino)methyl)benzyl)carbamoyl)phenyl)thiophene-2-carboxamide] the same measures were 93.67%, 84.23%, 75 ± 22.9 nM and 24.7 ± 10.6 nM.
